{"source": "patent EP0411395A2", "about": "“Use of ACE inhibitors for atherosclerosis-prophylaxis” (THERA PATENT-VERWALTUNGS-GmbH, priority 1989, dated 1991)", "experiment": "Three-year placebo-controlled study in overweight persons: Doppler sonographic maximal blood flow velocity in the Arteria dorsalis pedis as parameter of atherosclerosis", "assay_type": "in vivo, Patienten", "details": "for MAXIMALE BLUTSTRÖMUNGSGESCHWINDIGK.: 2 x 3 mg tgl. oral, Arteria dorsalis pedis", "from_the_text": "Es wurden 122 übergewichtige Personen ausgesucht, die im Mittel 25 % Übergewicht hatten. Diese Patienten gaben nach Aufklärung ihr Einverständnis, an dieser Studie über 3 Jahre teilzunehmen. Sie hatten bereits 5 bis 10 Versuche einer Gewichtsabnahme hinter sich, die alle […] verlaufen waren. Ein Diabetes mellitus war nach der Definition des WHO-Reports (Techn. Rep. Ser. 646, 1 bis 80, 1980) bei diesen Patienten ausgeschlossen. Sie wurden in zwei gleich starke Gruppen eingeteilt, so daß nach Alter sowie Ausmaß und Dauer des Übergewichts kein Unterschied bestand. Die Patienten wurden in halbjährlichen Abständen ambulant kontrolliert. Wie zu Beginn wurden bei diesen Kontrollen folgende Blutwerte gemessen: Blutsenkung, Blutbild, Nüchternblutzucker, IGTT, Gewicht, Cholesterin und Triglyzeride, Serumglutamat-Oxalat-Transaminase (SGOT), Serumglutamat-Pyruvat-Transaminase (SGPT). Damit wurden den Stoffwechsel beeinträchtigende Krankheiten ausgeschlossen. Als Parameter der Atherosklerose wurde die dopplersonographisch bestimmte maximale Blutströmungsgeschwindigkeit in der Arteria dorsalis pedis verwendet. Alle Patienten hatten eine schmerzfreie Gehstrecke von über 200 m, die Arteria dorsalis pedis war gut tastbar. Oszillographisch fand sich kein Anhalt für eine Mediasklerose. Das Vorliegen einer Neuropathie wurde mit den üblichen klinischen Methoden ausgeschlossen.\nDie erste Gruppe erhielt 2 x 3 mg Captopril täglich, die zweite Gruppe entsprechend Placebo. Die Patienten hatten die Auflage, keine den Stoffwechsel beeinträchtigenden Medikamente wie z.B. Diuretika, Betablocker oder dergleichen einzunehmen. In beiden Gruppen schieden über den Zeitraum von 3 Jahren 28 Patienten aus verschiedenen Gründen aus. Die Gruppen veränderten sich dadurch jedoch nicht so sehr, daß sie statistisch nicht mehr auswertbar gewesen wären. […] Die Ergebnisse des Versuchs sind in der nachstehenden Tabelle 1 dargestellt. Tabelle I"}
{"smiles": "C[C@H](CS)C(=O)N1CCC[C@H]1C(=O)O", "note": "[Captopril, 1-(2S)-3-Mercapto-2-methylpropionyl -L-prolin]", "values": [{"measurement": "MAXIMALE BLUTSTRÖMUNGSGESCHWINDIGK.", "setting": "1985 - 1 (start), Risikopatienten (Stoffwechselgesunde Übergewichtige), n=63", "result": "13,6 ± 0,4 cm/s"}, {"measurement": "MAXIMALE BLUTSTRÖMUNGSGESCHWINDIGK.", "setting": "1986 - 2, Risikopatienten, n=60", "result": "13,5 ± 0,3 cm/s"}, {"measurement": "MAXIMALE BLUTSTRÖMUNGSGESCHWINDIGK.", "setting": "1987 - 2, Risikopatienten, n=54", "result": "13,4 ± 0,2 cm/s"}, {"measurement": "MAXIMALE BLUTSTRÖMUNGSGESCHWINDIGK.", "setting": "1988 - 1 (after 3 years), Risikopatienten, n=48", "result": "13,5 ± 0,2 cm/s"}, {"measurement": "Abfall der maximalen Blutströmungsgeschwindigkeit", "setting": "nach 3 Jahren, versus Placebo, 2 x 3 mg Captopril täglich, p 0,05, Student's t-Test", "result": "signifikant geringerer Abfall"}]}
